Data on five compounds can be found in ChEMBL document CHEMBL1201862, “PubChem BioAssay data set” (2004).

SMILES strings stand for the structures.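 Growth conditions: 96-well plates. Treatment: test compound, 48 hours, 5 concentrations. Analysis: linear interpolation between bracketing concentrations; unreached endpoints set to highest concentration. GI50: concentration for 50% inhibition of growth.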 Calls of active or inactive are those of the source. Cut-off read from the data, not from the text of the source: active = GI50 up to about 1.1 µM and inactive = higher.

Among the test systems are NCI-H522; NCI-H460; OVCAR-4; OVCAR-3; TK-10; SN12C; SW-620; HOP-92; M14; SK-OV-3; HT-29; SK-MEL-2; MDA-MB-435; Hs-578T; MDA-N; SF-539; Malme-3M; DU-145; RXF 393; SK-MEL-28.
What all share (assay): growth of human tumour cells (NCI), 48 h

As for `O=S(=O)(/C=C/C=C/S(=O)(=O)c1ccccc1)c1ccccc1`, the GI50 with NCI-H522 was 0.174 µM (active); in the test on NCI-H460, 6.1 µM (inactive); in the test on OVCAR-4 it was 1.65 µM (inactive); in the test with OVCAR-3, 0.721 µM (active); in the test with TK-10, 1.57 µM (inactive); with SN12C it was 2 µM (inactive). Also, the GI50 is 0.172 µM (active) with SW-620; 1.37 µM (inactive) with HOP-92; 0.507 µM (active) with M14; 8 µM (inactive) with SK-OV-3; 1.18 µM (inactive) in the test on HT-29; 2.72 µM (inactive) with SK-MEL-2. Besides, the GI50 in the test on MDA-MB-435 is 1.45 µM (inactive); with Hs-578T, 2.43 µM (inactive); in the test on MDA-N, 1.24 µM (inactive); in the test with SF-539, 3.88 µM (inactive); in the test on Malme-3M it was 1.17 µM (inactive); in the test with DU-145, 14.6 µM (inactive). Moreover, the GI50 with RXF 393 was 0.36 µM (active); in the test on SK-MEL-28, 1.32 µM (inactive).
Turning to `Nc1ccccc1C(=O)NC(=O)Nc1ccc(Oc2ncc(Br)cn2)c(Cl)c1`, the GI50 in the test with NCI-H522 was < 0.01 µM (active); in the test with NCI-H460 it was < 0.01 µM (active); in the test on OVCAR-4, 0.698 µM (active); in the test with OVCAR-3, < 0.01 µM (active); with TK-10, 0.0274 µM (active); with SN12C it was 0.0133 µM (active). Moreover, the GI50 with SW-620 was < 0.01 µM (active); in the test with HOP-92 it was 0.217 µM (active); in the test on M14 it was 0.0152 µM (active); with SK-OV-3 it was < 0.01 µM (active); in the test on HT-29, < 0.01 µM (active); in the test on SK-MEL-2, < 0.0929 µM (active). Moreover, the GI50 in the test on MDA-MB-435 is < 0.01 µM (active); in the test with Hs-578T, < 0.01 µM (active); with MDA-N it was < 0.01 µM (active); with SF-539 it was < 0.01 µM (active); in the test on Malme-3M, < 0.01 µM (active); in the test with DU-145, < 0.0123 µM (active). The GI50 was 0.0261 µM (active) with RXF 393 and < 0.01 µM (active) in the test on SK-MEL-28.
Regarding `O=C(NC1CCCCC1)N1CCNC1=S`, the GI50 in the test on NCI-H522, in the test on NCI-H460, in the test with OVCAR-4, in the test on OVCAR-3, in the test on TK-10 and in the test with SN12C was > 100 µM (inactive) each time. The GI50 in the test on SW-620 was > 100 µM (inactive); in the test on HOP-92, > 100 µM (inactive); in the test on M14, > 100 µM (inactive); in the test on SK-OV-3 it was > 100 µM (inactive); in the test with HT-29 it was > 100 µM (inactive); with SK-MEL-2 it was 2.94 µM (inactive). Besides, the GI50 in the test on MDA-MB-435 is > 100 µM (inactive); in the test on Hs-578T, > 100 µM (inactive); with MDA-N it was > 100 µM (inactive); with SF-539, 65.6 µM (inactive); in the test on Malme-3M, > 100 µM (inactive); with DU-145, > 100 µM (inactive). The GI50 in the test on RXF 393 was 7.71 µM (inactive); in the test on SK-MEL-28, > 100 µM (inactive).
Regarding `Oc1nnnc2c1sc1ncccc12`, the GI50 with NCI-H522, with NCI-H460, in the test on OVCAR-4, in the test with OVCAR-3, with TK-10 and in the test with SN12C was > 100 µM (inactive) in each case. For the same compound, the GI50 with SW-620 was > 100 µM (inactive); in the test on HOP-92 it was 47.8 µM (inactive); in the test with M14 it was > 100 µM (inactive); in the test with SK-OV-3, 85.1 µM (inactive); in the test with HT-29, > 100 µM (inactive); in the test on SK-MEL-2, > 100 µM (inactive). The GI50 with MDA-MB-435, with Hs-578T, in the test on MDA-N, with SF-539, in the test on Malme-3M and in the test on DU-145 was > 100 µM (inactive) in each case. In addition, the GI50 with RXF 393 and in the test on SK-MEL-28 was > 100 µM (inactive) in each case.
Turning to `C[C@]12C=CC(=O)C=C1CC[C@@H]1[C@@H]2CC[C@]2(C)OC(=O)CC[C@@H]12` [TESTOLACTONE], the GI50 is 320 µM (inactive) with NCI-H522; 484 µM (inactive) in the test on NCI-H460; 486 µM (inactive) with OVCAR-4; 479 µM (inactive) in the test with OVCAR-3; 499 µM (inactive) in the test with TK-10; 495 µM (inactive) in the test on SN12C. The GI50 in the test on SW-620 is > 486 µM (inactive); in the test with HOP-92, 402 µM (inactive); in the test on M14 it was > 500 µM (inactive); with SK-OV-3, > 479 µM (inactive); in the test with HT-29, > 493 µM (inactive); in the test with SK-MEL-2, > 478 µM (inactive). The GI50 in the test with MDA-MB-435 was > 500 µM (inactive); in the test on Hs-578T it was 319 µM (inactive); with MDA-N, > 500 µM (inactive); in the test on SF-539, 454 µM (inactive); in the test on Malme-3M, 480 µM (inactive); with DU-145, > 343 µM (inactive). In addition, the GI50 is 437 µM (inactive) with RXF 393 and 498 µM (inactive) in the test with SK-MEL-28.
